Measurements taken from patent publication US10034886B2, “GLP-1 receptor modulators” (Celgene International II SÀRL, priority 2014, dated 2018).

The compounds below were run against T1, GLP-1R (Homo sapiens, UniProt P43220) (assay: EC20 GLP-1(9-36) PAM cAMP assay: dose response of compound in the presence of fixed concentration of GLP-1(9-36)). Settings: dose response of compound in presence of fixed concentration of GLP-1(9-36), GLP-1R CRE-bla CHO-K1 cells, read-out: EC20 GLP-1(9-36) PAM EC50.
T1 construct: host or cells: GLP-1R CRE-bla CHO-K1 cells
Format: cell-based
Experimental: EC20 GLP-1(9-36) PAM cAMP Assay: Dose Response of Compound in the Presence of Fixed Concentration of GLP-1 (9-36).
GLP-1R CRE-bla CHO-K1 cells cultured in growth medium (DMEM-High glucose, 10% dialyzed FBS, 0.1 mM NEAA, 25 mM Hepes, 100 U/mL penicillin/100 μg/mL streptomycin, 5 μg/mL Blasticidin, 600 μg/mL Hygromycin) were trypsinized and plated in suspension into 384 well white flat bottom plates at 5000 cells/well in 12 μL assay buffer (Hanks Balanced Salt solution, 10 mM hepes, 0.1% BSA, pH 7.4). A 5× compound dose response curve (12-point) was generated in assay buffer containing 1.5 mM IBMX, 4% DMSO. GLP-1(9-36) was diluted to 4.2 μM in assay buffer containing 1.5 mM IMBX and 4% DMSO. The 5× compound dose response was added (3 μL), followed by 0.5 μL of GLP-1(9-36) and cells were incubated for 30 min at 37° C. Direct detection of cAMP was carried out using DiscoveRx HitHunter cAMP kit according to manufacturer's instructions and luminescence was read using a SpectraMax M5 plate reader. Luminescence was converted to total cAMP using a cAMP standard curve and data was analyzed by non-linear regression to determine the EC50 and Emax.
GLP-1(7-36): […]-NH2 (SEQ ID NO: 2). GLP-1(9-36): […]-NH2 (SEQ ID NO: 3). GLP-1(7-36) was purchased from GenScript. GLP-1(9-36) was purchased from Biopeptide Co., Inc.
The EC20GLP-1(9-36) PAM Activity range is denoted as follows: + denotes activity <0.8 μM, ++ denotes activity between 0.8 and 2.5 μM, +++ denotes activity between 2.5 and 5 μM, and ++++ denotes activity 5 to 10 μM.

T1 sequence (P43220 24-463): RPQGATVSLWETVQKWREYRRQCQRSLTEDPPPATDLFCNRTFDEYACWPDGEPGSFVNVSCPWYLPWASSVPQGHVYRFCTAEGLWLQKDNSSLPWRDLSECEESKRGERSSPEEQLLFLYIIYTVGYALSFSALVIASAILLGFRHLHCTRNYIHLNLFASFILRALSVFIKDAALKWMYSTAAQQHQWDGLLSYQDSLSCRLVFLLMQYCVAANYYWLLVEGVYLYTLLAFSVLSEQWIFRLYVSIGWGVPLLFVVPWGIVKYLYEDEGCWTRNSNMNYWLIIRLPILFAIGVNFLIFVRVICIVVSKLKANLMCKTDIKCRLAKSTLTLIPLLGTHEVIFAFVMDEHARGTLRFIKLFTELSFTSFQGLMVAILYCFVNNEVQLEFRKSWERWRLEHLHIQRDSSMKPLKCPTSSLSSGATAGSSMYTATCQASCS
T1 sequence (P01275 100-127 partner limits assumed): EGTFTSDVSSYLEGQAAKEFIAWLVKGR

SMILES	EC50 [nM]
CCCCCCCOc1ccc(-c2cnc(-c3ccc(C[C@H](NC(=O)c4ccc(C(C)(C)C)s4)C(=O)NS(N)(=O)=O)cc3)nc2)cc1 [Compound 421]	800 to 2500
CCCCCCCOc1ccc(-c2cnc(-c3ccc(C[C@H](NC(=O)c4ccc(C(C)(C)C)s4)C(=O)NS(=O)(=O)c4ccccc4)cc3)nc2)cc1 [Compound 423]	800 to 2500
CCCCCCCOc1ccc(-c2cnc(-c3ccc(CC(NC(=O)c4ccc(C(C)(C)C)s4)C(=O)N[C@@H](CCCNC(=N)N)C(=O)O)cc3)nc2)cc1 (some centres unmarked) [Compound 425]	2500 to 5000
CCCCCCCOc1ccc(-c2cnc(-c3ccc(CC(NC(=O)c4ccc(C(C)(C)C)s4)C(=O)N[C@@H](CSSC[C@H](N)C(=O)O)C(=O)O)cc3)nc2)cc1 (some centres unmarked) [Compound 426]	800 to 2500
CCCCCCCOc1ccc(-c2cnc(-c3ccc(CC(NC(=O)c4ccc(C(C)(C)C)s4)C(=O)N[C@@H](CCCCN)C(=O)O)cc3)nc2)cc1 (some centres unmarked) [Compound 427]	800 to 2500
CCCCCCCOc1ccc(-c2cnc(-c3ccc(CC(NC(=O)c4ccc(C(C)(C)C)s4)C(=O)N[C@@H](Cc4ccc(O)cc4)C(=O)O)cc3)nc2)cc1 (some centres unmarked) [Compound 428]	800 to 2500
CCCCCCCOc1ccc(-c2cnc(-c3ccc(CC(NC(=O)c4ccc(C(C)(C)C)s4)C(=O)NCCCC(=O)O)cc3)nc2)cc1 (centres unmarked) [Compound 429]	2500 to 5000
CCCCCCCOc1ccc(-c2cnc(-c3ccc(CC(NC(=O)c4ccc(C(C)(C)C)s4)C(=O)NCC4CCN(C)CC4)cc3)nc2)cc1 (centres unmarked) [Compound 430]	5000 to 10000
CCCCCCCOc1ccc(-c2cnc(-c3ccc(C[C@@H](NC(=O)c4ccc(C(C)(C)C)cc4)C(=O)NCCC(=O)O)cc3)nc2)cc1 [Compound 433]	2500 to 5000
CCCCCCCOc1ccc(-c2cnc(-c3ccc(C[C@H](NC(=O)c4ccc(C(C)(C)C)s4)C(=O)NS(=O)(=O)CC(=O)O)cc3)nc2)cc1 [Compound 434]	800 to 2500
CCCCCCCOc1ccc(-c2cnc(-c3ccc(C[C@H](NC(=O)c4ccc(C(C)(C)C)s4)C(=O)NS(=O)(=O)CCOC)cc3)nc2)cc1 [Compound 435]	800 to 2500
CCCCCCCOc1ccc(-c2cnc(-c3ccc(C[C@H](NC(=O)c4ccc(C(C)(C)C)s4)C(=O)NC[C@H]4CCNC4)cc3)nc2)cc1 [Compound 438]	5000 to 10000
CCCCCCCOc1ccc(-c2cnc(-c3ccc(C[C@H](NC(=O)c4ccc(C(C)(C)C)s4)C(=O)NC[C@@H]4CCNC4)cc3)nc2)cc1 [Compound 439]	2500 to 5000
CCCCCCCOc1ccc(-c2cnc(-c3ccc(CC(NC(=O)c4ccc(C(C)(C)C)s4)C(=O)Nc4cccc(C(=O)O)c4)cc3)nc2)cc1 (centres unmarked) [Compound 441]	800 to 2500
CCCCCCCOc1ccc(-c2cnc(-c3ccc(CC(NC(=O)c4ccc(C(C)(C)C)s4)C(=O)Nc4ccc(C(=O)O)cc4)cc3)nc2)cc1 (centres unmarked) [Compound 442]	800 to 2500
CCOCCCCOc1ccc(-c2cnc(-c3ccc(C[C@H](NC(=O)c4ccc(C(C)(C)C)cc4)C(=O)NCCC(=O)O)cc3)nc2)cc1 [Compound 443]	800 to 2500
CCCCCCCOc1ccc(-c2cnc(-c3ccc(C[C@H](NC(=O)c4ccc(C(C)C)cc4)C(=O)NCCC(=O)O)cc3)nc2)cc1 [Compound 446]	800 to 2500
CCCCCCCOc1ccc(-c2cnc(-c3ccc(C[C@H](NC(=O)c4ccc(C(C)(C)C)cc4)C(=O)NC(CN(C)C)C(=O)O)cc3)nc2)cc1 (some centres unmarked) [Compound 447]	800 to 2500
CCCCCCCOc1ccc(-c2cnc(-c3ccc(C[C@H](NC(=O)c4ccc(C(C)(C)C)cc4)C(=O)N[C@H](C(=O)O)[C@@H](C)CC)cc3)nc2)cc1 [Compound 449]	800 to 2500
CCCCCCCOc1ccc(-c2cnc(-c3ccc(C[C@H](NC(=O)c4ccc(C(C)(C)C)cc4)C(=O)N[C@H](C(=O)O)[C@@H](C)O)cc3)nc2)cc1 [Compound 450]	< 800

Further lines, results first:

EC50 [nM]	SMILES
< 800	CCCCCCCOc1ccc(-c2cnc(-c3ccc(C[C@H](NC(=O)c4ccc(C(C)(C)C)s4)C(=O)NC(C(=O)O)c4ccco4)cc3)nc2)cc1 (some centres unmarked) [Compound 412]
< 800	CCCCCCCOc1ccc(-c2cnc(-c3ccc(CC(NC(=O)c4ccc(C(C)(C)C)s4)C(=O)N[C@H](C(=O)O)[C@@H](C)CC)cc3)nc2)cc1 (some centres unmarked) [Compound 414]
< 800	CCCCCCCOc1ccc(-c2cnc(-c3ccc(CC(NC(=O)c4ccc(C(C)(C)C)s4)C(=O)N[C@@H](Cc4ccccc4)C(=O)O)cc3)nc2)cc1 (some centres unmarked) [Compound 415]
< 800	CCCCCCCOc1ccc(-c2cnc(-c3ccc(CC(NC(=O)c4ccc(C(C)(C)C)s4)C(=O)N[C@@H](CCSC)C(=O)O)cc3)nc2)cc1 (some centres unmarked) [Compound 416]
< 800	CCCCCCCOc1ccc(-c2cnc(-c3ccc(C[C@H](NC(=O)c4ccc(C(C)(C)C)cc4)C(=O)N[C@H](CO)C(=O)O)cc3)nc2)cc1 [Compound 417]
< 800	CCCCCCCOc1ccc(-c2cnc(-c3ccc(C[C@H](NC(=O)c4ccc(C(C)(C)C)cc4)C(=O)N[C@@H](CO)C(=O)O)cc3)nc2)cc1 [Compound 418]
< 800	CCCCCCCOc1ccc(-c2cnc(-c3ccc(C[C@H](NC(=O)c4ccc(C(C)(C)C)s4)C(=O)NS(C)(=O)=O)cc3)nc2)cc1 [Compound 419]
< 800	CCCCCCCOc1ccc(-c2cnc(-c3ccc(C[C@H](NC(=O)c4ccc(C(C)(C)C)s4)C(=O)NS(=O)(=O)CC)cc3)nc2)cc1 [Compound 420]
< 800	CCCCCCCOc1ccc(-c2cnc(-c3ccc(C[C@H](NC(=O)c4ccc(C(C)(C)C)s4)C(=O)NS(=O)(=O)CC(=O)OC)cc3)nc2)cc1 [Compound 422, methyl (S)-2-(N-(2-(5-(tert-butyl)thiophene-2-carboxamido)-3-(4-(5-(4-(heptyloxy)phenyl)pyrimidin-2-yl)phenyl)propanoyl)sulfamoyl)acetate]
< 800	CCCCCCCOc1ccc(-c2cnc(-c3ccc(CC(NC(=O)c4ccc(C(C)(C)C)s4)C(=O)N[C@H](C(=O)O)[C@@H](C)O)cc3)nc2)cc1 (some centres unmarked) [Compound 424]
< 800	CCCCCCCOc1ccc(-c2cnc(-c3ccc(CC(NC(=O)c4ccc(C(C)(C)C)s4)C(=O)N4CC(C(=O)O)C4)cc3)nc2)cc1 (centres unmarked) [Compound 431]
< 800	CCCCCCCOc1ccc(-c2cnc(-c3ccc(CC(NC(=O)c4ccc(C(C)(C)C)s4)C(=O)N[C@@H](Cc4c[nH]c5ccccc45)C(=O)O)cc3)nc2)cc1 (some centres unmarked) [Compound 432]
< 800	CCCCCCCOc1ccc(-c2cnc(-c3ccc(C[C@@H](NC(=O)c4ccc(C(C)(C)C)cc4)C(=O)N[C@@H](C)C(=O)O)cc3)nc2)cc1 [Compound 436]
< 800	CCCCCCCOc1ccc(-c2cnc(-c3ccc(C[C@@H](NC(=O)c4ccc(C(C)(C)C)cc4)C(=O)N[C@H](C)C(=O)O)cc3)nc2)cc1 [Compound 437]
< 800	CCCCCCCOc1ccc(-c2cnc(-c3ccc(C[C@H](NC(=O)c4ccc(C(C)(C)C)cc4)C(=O)NC(C(=O)O)c4ccco4)cc3)nc2)cc1 (some centres unmarked) [Compound 440]
< 800	CCCCCCCOc1ccc(-c2cnc(-c3ccc(C[C@H](NC(=O)c4ccc(C(C)(C)C)cc4)C(=O)NCC(=O)NCC(=O)O)cc3)nc2)cc1 [Compound 444]
< 800	CCCCCCCOc1ccc(-c2cnc(-c3ccc(C[C@H](NC(=O)c4ccc(C(C)(C)C)cc4)C(=O)NCC(=O)NCCC(=O)O)cc3)nc2)cc1 [Compound 445]
< 800	CCCCCCCOc1ccc(-c2cnc(-c3ccc(C[C@H](NC(=O)c4ccc(C(C)(C)C)s4)C(=O)N4CCC(C(=O)O)CC4)cc3)nc2)cc1 [Compound 448]
